Results taken from patent US11672817B2, “Maltosyl-Isomaltooligosaccharides” (ISOThrive Inc., priority 2016, dated 2023).
No end group written: not given here.

Key:
[1] = system: Weissella viridescens NRRL B-1951; assay: W. viridescens culture absorbance (growth) with nisin; assay type: cell-based; parameters: key to Corrected ABS 610rs: A600 minus background absorbance taken just after inoculation; settings: for 91516 ABS 610f: final absorbance, uncorrected
Protocol: Purified nisin A and Z are commercially available and were acquired from Handary S. A. (Brussels Belgium). Certificates of analysis for each lot indicated purities of 95.2 and 99.6% for nisin A and Z, respectively.
100 g De-Man, Rogosa and Sharpe (MRS) media was prepared in a 500 mL Erlenmeyer to contain 5.5% solids in deionized water (18.2 MS2, Hydro Service and Supplies, Gaithersburg, Md.). The media was autoclaved (121° C. 15 min), cooled, and inoculated with 1 mL (0.5 mL culture+0.5 mL glycerol, 40%; frozen at −78° C.) of Weissella viridescens NRRL B-1951 (test strain). The culture was incubated at 31° C. overnight (15 Hr).
The next day, stock solutions of either nisin A or Z were prepared in deionized water to contain 31.3 and 33.7 μg/g of each peptide.
(§1) 100 g MRS media was prepared to contain 5.5% solids. Two sets (one set each for nisin A and nisin Z) of eight Hach-type tubes (Kimble Chase 45066-16100) were prepared. Within each set, in order was added 5.00, 4.95, 4.90, 4.75, 4.50, 4.00, 3.50 and 3.00 g MRS media. The tubes were sealed and autoclaved.
(§2) To each tube was added, of the appropriate nisin stock, 0.00, 0.05, 0.10, 0.25, 0.50, 1.00, 1.50, and 2.00 g. Each tube was inoculated with 0.25 g of late-log W. viridescens NRRL B-1951 culture. The tubes were sealed and the absorbance at 600 nm was quickly measured (Hach DR900). The tubes were segregated by set and incubated at 31° C. overnight (15 Hr).
Each tube was thoroughly mixed to suspend settled cells and the absorbance was measured again at 600 nm. The final absorbance values for each sample were corrected for their respective background (taken just after inoculation, scattered light from added cells). The corrected absorption values were a measure of W. viridescens growth. The corrected values were plotted against nisin concentration and minimum inhibiting concentration approximated via regression.

[2] = system: Weissella viridescens NRRL B-1951; assay: HPLC of culture supernatants: consumption of glucose and production of organic acids with nisin; assay type: cell-based; settings: for acetic acid in the fermentation media: MRS media originally contained 7% acetate
Protocol: as §1, §2
Each tube was sampled (1.5 mL conical polypropylene centrifuge tubes) and centrifuged at 10 kRPM for 10 minutes to remove and suspended cells. The resulting supernatants were filtered (0.2 μm nylon), diluted to 0.5% solids, and analyzed by high pressure liquid chromatography (HPLC, Agilent 1100, refractive index detector and BioRad Ainex HPX-87H column) for consumption of glucose and production of organic acids. The following table illustrates the concentration of sugars such as glucose and production of organic acids during the incubation.
Note that the MRS media originally contained 7% acetate; therefore 7% should be subtracted from the values for acetate in the above table to ascertain the amount of acetate generated during the assay.

nisin Z (ITSISLCTPGCKTGALMGCNMKTATCNCSIHVSK; not fully specified (residues 2, 5, 33, bridges); also: lantibiotic (thioether rings, dehydrated residues not placed); UniProt P13068 24-57, looked up, variant H27N) [Purified nisin Z, commercially available, acquired from Handary S. A; purity 99.6%; bacteriocin peptide]
inhibition of bacterial growth [1]: can effectively inhibit | 91516 ABS 610f ([1]; nisin Z 0.34 μg/g (tube Z2)): 1.618 | 91516 ABS 610f ([1]; nisin Z 0.77 μg/g (tube Z3)): 1.526 | 91516 ABS 610f ([1]; nisin Z 1.58 μg/g (tube Z4)): 1.296 | 91516 ABS 610f ([1]; nisin Z 3.19 μg/g (tube Z5)): 0.801 | 91516 ABS 610f ([1]; nisin Z 6.31 μg/g (tube Z6)): 0.426 | 91516 ABS 610f ([1]; nisin Z 9.54 μg/g (tube Z7)): 0.384 | 91516 ABS 610f ([1]; nisin Z 12.61 μg/g (tube Z8)): 0.386 | Corrected ABS 610rs ([1]; nisin Z 0.34 μg/g (tube Z2)): 1.146 | Corrected ABS 610rs ([1]; nisin Z 0.77 μg/g (tube Z3)): 1.062 | Corrected ABS 610rs ([1]; nisin Z 1.58 μg/g (tube Z4)): 0.841 | Corrected ABS 610rs ([1]; nisin Z 3.19 μg/g (tube Z5)): 0.359 | Corrected ABS 610rs ([1]; nisin Z 6.31 μg/g (tube Z6)): 0.003 | Corrected ABS 610rs ([1]; nisin Z 9.54 μg/g (tube Z7)): 0.001 | Corrected ABS 610rs ([1]; nisin Z 12.61 μg/g (tube Z8)): 0.001 | Maltotriose in the fermentation media ([2]; nisin Z 0.34 μg/g (tube Z2)): 0.282 %/brix | ethanol in the fermentation media ([2]; nisin Z 0.34 μg/g (tube Z2)): 0.057 %/brix | formic acid in the fermentation media ([2]; nisin Z 0.34 μg/g (tube Z2)): 0.303 %/brix | fructose in the fermentation media ([2]; nisin Z 0.34 μg/g (tube Z2)): 0.000 %/brix | glucose in the fermentation media ([2]; nisin Z 0.34 μg/g (tube Z2)): 22.988 %/brix | glycerol in the fermentation media ([2]; nisin Z 0.34 μg/g (tube Z2)): 0.343 %/brix | lactic acid in the fermentation media ([2]; nisin Z 0.34 μg/g (tube Z2)): 6.742 %/brix | maltose in the fermentation media ([2]; nisin Z 0.34 μg/g (tube Z2)): 0.722 %/brix | acetic acid in the fermentation media ([2]; nisin Z 0.34 μg/g (tube Z2)): 8.273 %/brix | Maltotriose in the fermentation media ([2]; nisin Z 1.58 μg/g (tube Z4)): 0.265 %/brix | ethanol in the fermentation media ([2]; nisin Z 1.58 μg/g (tube Z4)): 0.083 %/brix | formic acid in the fermentation media ([2]; nisin Z 1.58 μg/g (tube Z4)): 0.309 %/brix | fructose in the fermentation media ([2]; nisin Z 1.58 μg/g (tube Z4)): 0.000 %/brix | glucose in the fermentation media ([2]; nisin Z 1.58 μg/g (tube Z4)): 24.153 %/brix | glycerol in the fermentation media ([2]; nisin Z 1.58 μg/g (tube Z4)): 0.337 %/brix | lactic acid in the fermentation media ([2]; nisin Z 1.58 μg/g (tube Z4)): 5.081 %/brix | maltose in the fermentation media ([2]; nisin Z 1.58 μg/g (tube Z4)): 1.007 %/brix | acetic acid in the fermentation media ([2]; nisin Z 1.58 μg/g (tube Z4)): 8.247 %/brix | Maltotriose in the fermentation media ([2]; nisin Z 3.19 μg/g (tube Z5)): 0.311 %/brix | ethanol in the fermentation media ([2]; nisin Z 3.19 μg/g (tube Z5)): 0.067 %/brix | formic acid in the fermentation media ([2]; nisin Z 3.19 μg/g (tube Z5)): 0.281 %/brix | fructose in the fermentation media ([2]; nisin Z 3.19 μg/g (tube Z5)): 0.000 %/brix | glucose in the fermentation media ([2]; nisin Z 3.19 μg/g (tube Z5)): 24.698 %/brix | glycerol in the fermentation media ([2]; nisin Z 3.19 μg/g (tube Z5)): 0.321 %/brix | lactic acid in the fermentation media ([2]; nisin Z 3.19 μg/g (tube Z5)): 2.995 %/brix | maltose in the fermentation media ([2]; nisin Z 3.19 μg/g (tube Z5)): 0.750 %/brix | acetic acid in the fermentation media ([2]; nisin Z 3.19 μg/g (tube Z5)): 8.026 %/brix | Maltotriose in the fermentation media ([2]; nisin Z 6.31 μg/g (tube Z6)): 0.247 %/brix | ethanol in the fermentation media ([2]; nisin Z 6.31 μg/g (tube Z6)): 0.059 %/brix | formic acid in the fermentation media ([2]; nisin Z 6.31 μg/g (tube Z6)): 0.267 %/brix | fructose in the fermentation media ([2]; nisin Z 6.31 μg/g (tube Z6)): 0.000 %/brix | glucose in the fermentation media ([2]; nisin Z 6.31 μg/g (tube Z6)): 25.353 %/brix | glycerol in the fermentation media ([2]; nisin Z 6.31 μg/g (tube Z6)): 0.320 %/brix | lactic acid in the fermentation media ([2]; nisin Z 6.31 μg/g (tube Z6)): 1.351 %/brix | maltose in the fermentation media ([2]; nisin Z 6.31 μg/g (tube Z6)): 0.726 %/brix | acetic acid in the fermentation media ([2]; nisin Z 6.31 μg/g (tube Z6)): 7.969 %/brix | Maltotriose in the fermentation media ([2]; nisin Z 9.54 μg/g (tube Z7)): 0.291 %/brix | ethanol in the fermentation media ([2]; nisin Z 9.54 μg/g (tube Z7)): 0.065 %/brix | formic acid in the fermentation media ([2]; nisin Z 9.54 μg/g (tube Z7)): 0.263 %/brix | fructose in the fermentation media ([2]; nisin Z 9.54 μg/g (tube Z7)): 0.000 %/brix | glucose in the fermentation media ([2]; nisin Z 9.54 μg/g (tube Z7)): 25.501 %/brix | glycerol in the fermentation media ([2]; nisin Z 9.54 μg/g (tube Z7)): 0.335 %/brix | lactic acid in the fermentation media ([2]; nisin Z 9.54 μg/g (tube Z7)): 1.431 %/brix | maltose in the fermentation media ([2]; nisin Z 9.54 μg/g (tube Z7)): 0.895 %/brix | acetic acid in the fermentation media ([2]; nisin Z 9.54 μg/g (tube Z7)): 8.026 %/brix | Maltotriose in the fermentation media ([2]; nisin Z 12.61 μg/g (tube Z8)): 0.318 %/brix | ethanol in the fermentation media ([2]; nisin Z 12.61 μg/g (tube Z8)): 0.148 %/brix | formic acid in the fermentation media ([2]; nisin Z 12.61 μg/g (tube Z8)): 0.299 %/brix | fructose in the fermentation media ([2]; nisin Z 12.61 μg/g (tube Z8)): 0.000 %/brix | glucose in the fermentation media ([2]; nisin Z 12.61 μg/g (tube Z8)): 25.740 %/brix | glycerol in the fermentation media ([2]; nisin Z 12.61 μg/g (tube Z8)): 0.346 %/brix | lactic acid in the fermentation media ([2]; nisin Z 12.61 μg/g (tube Z8)): 1.652 %/brix | maltose in the fermentation media ([2]; nisin Z 12.61 μg/g (tube Z8)): 0.876 %/brix | acetic acid in the fermentation media ([2]; nisin Z 12.61 μg/g (tube Z8)): 8.261 %/brix
